In PubChem BioAssay (NCI):
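Test compounds were applied to cells in 96-well plates for 48 hours at 5 doses. TGI: total growth inhibition.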

Experiments:
Assay in all cases: DTP human tumour cell line panel, 48 h
786-0 renal = tested on: 786-0 renal
A549 NSCLC = tested on: A549 NSCLC
ACHN renal = tested on: ACHN renal
BT-549 breast = tested on: BT-549 breast
CAKI-1 renal = tested on: CAKI-1 renal
CCRF-CEM leukemia = tested on: CCRF-CEM leukemia
COLO 205 colon = tested on: COLO 205 colon
EKVX NSCLC = tested on: EKVX NSCLC
HCC-2998 colon = tested on: HCC-2998 colon
HCT-116 colon = tested on: HCT-116 colon
HCT-15 colon = tested on: HCT-15 colon
HL-60(TB) leukemia = tested on: HL-60(TB) leukemia
HOP-62 NSCLC = tested on: HOP-62 NSCLC
HOP-92 NSCLC = tested on: HOP-92 NSCLC
HS 578T breast = tested on: HS 578T breast
HT29 colon = tested on: HT29 colon
IGROV1 ovarian = tested on: IGROV1 ovarian
K-562 leukemia = tested on: K-562 leukemia
KM12 colon = tested on: KM12 colon
M14 melanoma = tested on: M14 melanoma
MALME-3M melanoma = tested on: MALME-3M melanoma
MCF7 breast = tested on: MCF7 breast
MDA-MB-231 breast = tested on: MDA-MB-231 breast
MDA-MB-435 = tested on: MDA-MB-435
MOLT-4 leukemia = tested on: MOLT-4 leukemia
NCI-H226 lung = tested on: NCI-H226 lung
NCI-H23 lung = tested on: NCI-H23 lung
NCI-H460 lung = tested on: NCI-H460 lung
NCI-H522 lung = tested on: NCI-H522 lung
NCI/ADR-RES ovarian = tested on: NCI/ADR-RES ovarian
OVCAR-3 ovarian = tested on: OVCAR-3 ovarian
OVCAR-5 ovarian = tested on: OVCAR-5 ovarian
OVCAR-8 ovarian = tested on: OVCAR-8 ovarian
PC-3 prostate = tested on: PC-3 prostate
RPMI-8226 leukemia = tested on: RPMI-8226 leukemia
RXF 393 renal = tested on: RXF 393 renal
SF-268 CNS = tested on: SF-268 CNS
SF-295 CNS = tested on: SF-295 CNS
SF-539 CNS = tested on: SF-539 CNS
SK-MEL-2 melanoma = tested on: SK-MEL-2 melanoma
SK-MEL-28 melanoma = tested on: SK-MEL-28 melanoma
SK-MEL-5 melanoma = tested on: SK-MEL-5 melanoma
SK-OV-3 ovarian = tested on: SK-OV-3 ovarian
SNB-19 CNS = tested on: SNB-19 CNS
SNB-75 CNS = tested on: SNB-75 CNS
SR leukemia = tested on: SR leukemia
SW-620 colon = tested on: SW-620 colon
TK-10 renal = tested on: TK-10 renal
U251 CNS = tested on: U251 CNS
UACC-257 melanoma = tested on: UACC-257 melanoma
UACC-62 melanoma = tested on: UACC-62 melanoma
UO-31 renal = tested on: UO-31 renal
A498 renal = tested on: A498 renal
DU-145 prostate = tested on: DU-145 prostate
LOX IMVI melanoma = tested on: LOX IMVI melanoma
SN12C renal = tested on: SN12C renal

Measured: TGI

O=S(=O)(O)c1ccc(N=Nc2ccc(N=Nc3c(O)ccc4cc(S(=O)(=O)O)ccc34)cc2)cc1
not listed: A498 renal | DU-145 prostate | LOX IMVI melanoma | SN12C renal
> 100 µM: all other assays above

Cn1cc(NC(=O)c2cc(NC(=O)c3cc(NC=O)cn3C)cn2C)cc1C(=O)NCCC(=N)N
not listed: A549 NSCLC | HCC-2998 colon | HOP-92 NSCLC | NCI-H522 lung | SR leukemia
> 100 µM: all other assays above
